Test in all cases: DTP human tumour cell line panel, 48 h
Assay [1] has as its system DLD-1 colon.
For assay [2], the system named is HT29 colon.
The subject of assay [3] is IGROV1 ovarian.
The test system of assay [4] is KM20L2 colon.
The subject of assay [5] is LXFL 529 NSCLC.
Assay [6] concerns MALME-3M melanoma.
Assay [7] relates to OVCAR-8 ovarian.
Assay [8] deals with TK-10 renal.
Assay [9] relates to UO-31 renal.
The test system of assay [10] is SN12C renal.
The subject of assay [11] is SK-OV-3 ovarian.

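Where inhibition never reached the appropriate level, the endpoint shown equals the highest concentration tested. Otherwise, values were interpolated linearly from a five-concentration, 48-hour dose response in 96-well plates. GI50 is the concentration that inhibits growth by half. TGI denotes the concentration required for complete inhibition of growth.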

By TGI is commonly meant the concentration giving total growth inhibition. A higher TGI goes with lower sensitivity of the cells. Take `N#Cc1cccc(-n2[nH]c(=O)ccc2=O)c1`: the TGI in [1], in assay [2], in assay [3], in assay [4], in assay [5] and in [6] was greater than 100 µM throughout. Besides, the TGI in [7], in [8] and in [9] was greater than 100 µM throughout.
Turning to `CCNC(=O)c1ccc(C)c(N=NN(C)C)c1`, the TGI in assay [1], in assay [2], in [3], in assay [4], in assay [5] and in [7] was greater than 100 µM throughout. The TGI in [10], in assay [8] and in assay [9] was greater than 100 µM each time.
As to `O=c1[nH]c2cc(Cl)ccc2nc1/C(=N\Nc1ccccc1)C(O)c1ccc(Cl)c(Cl)c1` (centres undefined), the TGI in [1], in assay [2], in assay [3], in assay [4], in [5] and in assay [6] was greater than 100 µM throughout. For the same compound, the concentration for total growth inhibition (TGI) in assay [7], in [11], in [10], in [8] and in assay [9] was greater than 100 µM throughout.
For `CON(C)C(=O)C(Cc1ccccc1)NC(=O)OCc1ccccc1` (centres undefined), the TGI in [1], in assay [2], in [3], in assay [4], in assay [5] and in [6] was greater than 100 µM each time. Moreover, the concentration for total growth inhibition (TGI) in assay [7], in [11], in assay [10], in [8] and in assay [9] was greater than 100 µM each time.
Turning to `COc1cc2c(cc1O)[C@H](C)C(c1ccc(OC)c(OC)c1)O2` (some centres undefined), the TGI was found to be 21.3 µM in [1]; 34.5 µM in assay [2]; 4.36 µM in assay [3]; 38.2 µM in [4]; 21.5 µM in [5]; 22.8 µM in [6]. Also, the TGI is 35.1 µM in assay [7], greater than 100 µM in assay [11], 30.1 µM in assay [8] and 64 µM in assay [9].
With `COc1ccc(C2Oc3cc(OC)c(OC)cc3C2CCl)cc1OC` (centres undefined), the TGI in assay [1], in assay [4], in assay [5], in [6], in assay [7] and in [10] was greater than 100 µM in each case. Moreover, the TGI in [8] and in assay [9] was greater than 100 µM throughout.
For the compound `COc1cc(-c2cccs2)sc1-c1cccs1`, the TGI in assay [1] was greater than 100 µM; in assay [2], 53.3 µM; in [3], greater than 100 µM; in [4] it was 85.1 µM; in [5], greater than 100 µM; in [6], greater than 100 µM. Also, the TGI in [7], in assay [11], in assay [10], in assay [8] and in [9] was greater than 100 µM in each case.
For the compound `O=C(CC1Sc2ccccc2NC1=O)Nc1ccccc1[N+](=O)[O-]` (centres undefined), the TGI in [1], in assay [2], in assay [3], in assay [4], in assay [5] and in assay [6] was greater than 100 µM throughout. Also, the TGI in assay [7], in assay [11], in [10], in assay [8] and in [9] was greater than 100 µM throughout.
Turning to `O=C1C(Br)=C(Br)C(=O)c2ccc(=O)ccc21`, the TGI was 46.6 µM in [1]; greater than 75 µM in [2]; greater than 66.1 µM in assay [3]; greater than 100 µM in assay [4]; 31.7 µM in [5]; 37.4 µM in assay [6]. In addition, the TGI in [7] was 50.8 µM; in assay [11], greater than 100 µM; in assay [10] it was 33.7 µM; in [8], 37.2 µM; in assay [9] it was 34.9 µM.
The term GI50 denotes the concentration that inhibits growth by half. As for `O=c1cc(-c2ccc3c(c2)OCO3)[nH]c2cc3c(cc12)OCO3`, the TGI in assay [1] is greater than 100 µM; in assay [2], greater than 100 µM; in assay [3] it was greater than 100 µM; in assay [4], 74.5 µM; in assay [5], greater than 100 µM; in [6], 97.8 µM. In addition, the TGI in assay [7] is 78.1 µM; in assay [11], 99.4 µM; in assay [10], greater than 100 µM; in assay [8], greater than 100 µM; in assay [9], greater than 100 µM. Also, the GI50 in [4] is 26.6 µM.
For the compound `O=C(Nc1c(O)[nH]c(=S)[nH]c1=O)c1ccccc1`, the TGI in [1], in [2], in [3], in assay [4], in assay [5] and in [6] was greater than 100 µM in each case. Also, the TGI in assay [7], in [11], in [10], in assay [8] and in assay [9] was greater than 100 µM each time.
`COc1cc(C2C(Cl)C(=O)N2n2cnc3ccccc3c2=O)ccc1O` (centres undefined): the TGI in assay [1], in assay [2], in [3], in assay [4], in assay [5] and in assay [6] was greater than 100 µM each time. Further, the TGI in [7], in assay [11], in assay [10], in [8] and in assay [9] was greater than 100 µM throughout.
Consider `Cc1ccc(S(=O)(=O)N2C3C=CC(C3)[C@@H]2C(Cl)(Cl)Cl)cc1` (some centres undefined), for which the TGI in assay [2] is 31.8 µM; in [3] it was greater than 71 µM; in [6], 56.1 µM; in [7] it was greater than 63.3 µM; in assay [11], greater than 100 µM; in assay [10], 44.2 µM. Besides, the values for the TGI in assay [8] and in assay [9] were greater than 100 µM and 59.3 µM, respectively. Besides, in assay [11], the GI50 was 39.2 µM.

The values are drawn from PubChem BioAssay (NCI).
